Data published in patent US9170257B2 (priority 2012, dated 2015).

Key:
in vivo [1] = experiment: in vivo; set-up: species or system Beagle dogs; conditions: dog, in vivo; for concentration at 15 min post-infusion / concentration at 15 min / Kp at 2 h / Kp at 8 h: both sexes; for Kp at 2 h / Kp at 8 h: Kp [tissue]/[plasma]
Procedure: The test article will be administered to 8 Beagle dogs by intravenous infusion over two hours (Part A) or eight hours (Part B) as shown in Table 6.
(§1) Multiple samples of tissue weighing approximately 1 gram were removed and snap frozen in the presence or absence of phosphoric acid (H3PO4). For all tissue samples, the levels of curcumin and THC were determined using a method developed by the Bioanalytical Department at Nucro-Technics. […] Values that were below the limit of quantification were assigned a value of 0. […] Tissue distribution data was analyzed using, unless stated, the data from 4 dogs and are presented as the mean±standard error (S.E.).

in vivo [2] = type: in vivo, Beagle dogs; conditions: dog, in vivo
Procedure: (§2) The results and analysis for the study are presented for intravenous infusion dosing of a total dose of 10 mg/kg infused over a period of either 2 or 8 hours. Plasma levels of curcumin and its metabolite, THC were measured at timed intervals post-dosing.
(§3) Bioanalysis was performed on two sets of samples, one set that was treated with phosphoric acid and one set that was not treated with phosphoric acid. […] Values that were below the limit of quantification were assigned a value of 0.
as §1, with “Fifteen minutes following either the 2 hour or 8 hour infusion, blood, urine and bile samples were taken, prior to the dogs being necropsied and organs removed for the isolation of tissues. Multiple” for “Multiple”

[3] = rat, rodent studies; cited from earlier work
[4] = test system: MPTP-induced depletion of DA and DOPAC; conditions: 80 mg/kg i.p.; cited from earlier work
in vivo [5] = type: in vivo, Beagle dogs; conditions: dog, in vivo, iv, 10 mg/kg
Procedure: as §2
For the 2 hour infusion, blood samples were taken at predose and 0.25, 0.5, 1.5 and at 2 hours during infusion and at 15 minutes post-infusion. For the 8 hour infusion, blood samples were taken at predose and 0.25, 0.5, 1.5, […] and at 8 hours during infusion and at 15 minutes post-infusion.
as §3
Plasma concentration vs. time profiles were analyzed using (unless otherwise stated) the data from 4 dogs. Plasma profiles for the test articles are presented as the mean data±SE of 4 dogs. Average plasma concentrations were used to perform the PK analysis. Plasma concentration vs. time profiles were analyzed and the PK parameters estimated using WinNonlin Version 5.2.1 employing the intravenous infusion model with first order elimination. Unless stated otherwise, the plasma concentration-time profiles for the test articles are presented as the mean data±SE of 4 dogs.

COc1cc(/C=C/C(=O)CC(=O)/C=C/c2ccc(O)c(OC)c2)ccc1O [Curcumin, 1,7-bis(4-hydroxy-3-methoxyphenyl)-1,6-heptadiene-3,5-dione, reference compound]
concentration at 15 min post-infusion (in vivo [1]; Beagle, Tissue analysis, Liver): 28.4 ng/g
concentration at 15 min post-infusion (in vivo [1]; Beagle, Tissue analysis, Spleen): 22.9 ng/g
concentration at 15 min (in vivo [1]; Beagle, Tissue level, Brain Stem): 0.3 ng/g
concentration at 15 min (in vivo [1]; beagle, Average tissue concentration, Bladder): 0.66 ng/g
concentration at 15 min (in vivo [1]; beagle, Average tissue concentration, Brainstem): 0.45 ng/g
concentration at 15 min (in vivo [1]; beagle, Average tissue concentration, Heart): 0.47 ng/g
concentration at 15 min (in vivo [1]; beagle, Average tissue concentration, Intestinal wall): 1.14 ng/g
concentration at 15 min (in vivo [1]; beagle, Average tissue concentration, Striatum): 0.48 ng/g
Kp at 2 h (in vivo [1]; beagle, Brain Stem): 0.0081
Kp at 8 h (in vivo [1]; beagle, Brain Stem): 0.0389
Kp at 2 h (in vivo [1]; beagle, Cortex, Brain): 0.0134
Kp at 8 h (in vivo [1]; beagle, Cortex, Brain): 0.0544
Kp at 2 h (in vivo [1]; beagle, Heart): 0.0087
Kp at 8 h (in vivo [1]; beagle, Heart): 0.0503
Kp at 2 h (in vivo [1]; beagle, Hippocampus): 0.0016
Kp at 8 h (in vivo [1]; beagle, Hippocampus): 0.0007
Kp at 2 h (in vivo [1]; beagle, Intestinal Wall): 0.0206
Kp at 8 h (in vivo [1]; beagle, Intestinal Wall): 0.0564
Kp at 2 h (in vivo [1]; beagle, Kidney): 0.0161
Kp at 8 h (in vivo [1]; beagle, Kidney): 0.186
Kp at 2 h (in vivo [1]; beagle, Liver): 0.0329
Kp at 8 h (in vivo [1]; beagle, Liver): 1.9
Kp at 2 h (in vivo [1]; beagle, Lungs): 0.413
Kp at 8 h (in vivo [1]; beagle, Lungs): 16.8
Kp at 2 h (in vivo [1]; beagle, Muscle): 0.0034
Kp at 8 h (in vivo [1]; beagle, Muscle): 0.053
Kp at 2 h (in vivo [1]; beagle, Pancreas): 0.0166
Kp at 8 h (in vivo [1]; beagle, Pancreas): 0.191
Kp at 2 h (in vivo [1]; beagle, Striatum): 0.0087
Kp at 8 h (in vivo [1]; beagle, Striatum): 0.0329
Kp at 2 h (in vivo [1]; beagle, Urinary Bladder): 0.0125
Kp at 8 h (in vivo [1]; beagle, Urinary Bladder): 0.152
concentration at 15 min (in vivo [1]; beagle, Tissue analysis, Brainstem): 0.45 ng/g
concentration at 15 min (in vivo [1]; beagle, Tissue analysis, Cortex): 0.73 ng/g
concentration at 15 min (in vivo [1]; beagle, Tissue level, Cortex, Brain): 0.52 ng/g
concentration at 15 min (in vivo [1]; beagle, Tissue level, Heart): 0.49 ng/g
Average tissue concentration, Bladder (in vivo [1]; both, beagle, 15 min): 0.87 ng/gm
Average tissue concentration, Brainstem (in vivo [1]; both, beagle, 15 min): 0.57 ng/gm
Average tissue concentration, Cortex (in vivo [1]; both, beagle, 15 min): 0.80 ng/gm
Average tissue concentration, Heart (in vivo [1]; both, beagle, 15 min): 0.74 ng/gm
Average tissue concentration, Striatum (in vivo [1]; both, beagle, 15 min): 0.49 ng/gm
Tissue analysis, Brainstem (in vivo [1]; both, beagle, 15 min): 0.32
Tissue analysis, Cortex (in vivo [1]; both, beagle, 15 min): 0.52
Tissue level, Brain Stem (in vivo [1]; both, beagle, 15 min): 0.41 ng/g
Tissue level, Cortex, Brain (in vivo [1]; both, beagle, 15 min): 0.72 ng/g
Tissue level, Heart (in vivo [1]; both, beagle, 15 min): 0.67 ng/g
Kp [tissue]/[plasma], Liver (in vivo [1]; both, beagle, 8 h): 1.9047
Kp [tissue]/[plasma], Lungs (in vivo [1]; both, beagle, 8 h): 16.8289
concentration at 15 min (in vivo [2]; both sexes, Beagle, Plasma level): 0 ng/mL
Plasma level (in vivo [2]; both, beagle, 15 min): 0 ± 0 ng/mL
Kp values [3]: 0.06-0.25
MPTP-induced depletion of DA and DOPAC [4]: significantly reversed
clearance (in vivo [5]; both sexes, Beagle): 343 mL/min/kg
Cmax (in vivo [5]; both sexes, Beagle, Cmax): 15 ng/mL
MRT (in vivo [5]; both sexes, beagle): 36 min
Vd (in vivo [5]; both sexes, beagle): 12.7 L/kg
clearance (in vivo [5]; both sexes, beagle): 343 mL/min/kg
half-life (in vivo [5]; both sexes, beagle): 24 min
AUC (in vivo [5]; both sexes, beagle, AUC): 65 ng·h/mL
AUC (in vivo [5]; both sexes, beagle, AUC (estimated PK parameter)): 485 ng·h/mL
Cmax (in vivo [5]; both sexes, beagle, Cmax): 46 ng/mL
Cmax (in vivo [5]; both sexes, beagle, Cmax (estimated PK parameter)): 233 ng/mL
AUC (in vivo [5]; both, Beagle): 52 ng·h/mL
Ke (in vivo [5]; both, Beagle): 1.6 h⁻¹
